Experiment [1] deals with ECa-109 cell line. Put plainly: Induction of ROS-mediated apoptosis in human ECa-109 cells assessed as necrotic cells at 2 uM incubated for 48 hrs by annexin V-PE and 7-AAD staining based flow cytometry analysis (reference value: 0.729 %). It is filed as functional. In general terms: A flow cytometer gives signals particle by particle.
The subject of a further experiment is HepG2. Put plainly: Cytotoxicity against human HepG2 cells assessed as reduction in cell viability incubated for 48 hrs by MTT assay. It is filed as functional, cell-based. As to conditions: HepG2, 48 h. (Formazan colour is commonly taken as a measure of viable cells.)
The nature of experiment [2]: Selectivity index, ratio of IC50 for cytotoxicity against human HL7702 cells to IC50 for cytotoxicity against human ECa-109 cells.
The next experiment has as its system HeLa. Put plainly: Cytotoxicity against human HeLa cells assessed as reduction in cell viability incubated for 48 hrs by MTT assay. It is filed as functional, cell-based.
In experiment [3] the test system is ECa-109 cell line. Put plainly: Induction of apoptosis in human ECa-109 cells assessed as late apoptotic cells at 1 uM incubated for 48 hrs by annexin-V-FITC and PI staining based fluorescence microscopic analysis (reference value: 2.01 %). It is filed as functional.
Experiment [4] concerns ECa-109 cell line. Put plainly: Induction of ROS-mediated apoptosis in human ECa-109 cells assessed as viable cells at 4 uM incubated for 48 hrs by annexin V-PE and 7-AAD staining based flow cytometry analysis (reference value: 92.7 %). It is filed as functional. As to conditions: read-out: Activity.
Experiment [5] relates to ECa-109 cell line. Put plainly: Induction of cell cycle arrest in human ECa-109 cells assessed as accumulation in G0/G1 phase at 2 uM incubated for 48 hrs by PI staining based flow cytometry analysis (reference value: 52.28 %). It is filed as functional.
Experiment [6] concerns SGC-7901. Put plainly: Cytotoxicity against human SGC-7901 cells assessed as reduction in cell viability incubated for 48 hrs by MTT assay. It is filed as functional, cell-based. As to conditions: SGC-7901, 48 h.
For experiment [7], the system named is ECa-109 cell line. Put plainly: Induction of ROS-mediated apoptosis in human ECa-109 cells assessed as late apoptotic cells at 1 uM incubated for 48 hrs by annexin V-PE and 7-AAD staining based flow cytometry analysis (reference value: 3.89 %). It is filed as functional.
In experiment [8] the test system is ECa-109 cell line. Put plainly: Induction of ROS-mediated apoptosis in human ECa-109 cells assessed as early apoptotic cells at 4 uM incubated for 48 hrs by annexin V-PE and 7-AAD staining based flow cytometry analysis (reference value: 2.70 %). It is filed as functional.
The test system of a further experiment is L02. Put plainly: Cytotoxicity against human HL7702 cells assessed as reduction in cell viability incubated for 48 hrs by MTT assay. As to conditions: L02, 48 h. It is filed as ADME, cell-based.
The test system of experiment [9] is ECa-109 cell line. Put plainly: Induction of ROS-mediated apoptosis in human ECa-109 cells assessed as early apoptotic cells at 4 uM incubated for 48 hrs in presence of NAC by annexin V-PE and 7-AAD staining based flow cytometry analysis (reference value: 1.90 %). It is filed as functional.
Experiment [10] concerns ECa-109 cell line. Put plainly: Cytotoxicity against human ECa-109 cells assessed as reduction in cell viability incubated for 48 hrs by MTT assay. It is filed as functional, cell-based. The note with it: ECa-109, 48 h.
Experiment [11] concerns ECa-109 cell line. Put plainly: Induction of apoptosis in human ECa-109 cells assessed as early apoptotic cells at 2 uM incubated for 48 hrs by annexin-V-FITC and PI staining based fluorescence microscopic analysis (reference value: 0.971 %). It is filed as functional.
In experiment [12] the test system is ECa-109 cell line. Put plainly: Induction of mitochondrial membrane potential disruption in human ECa-109 cells incubated for 48 hrs by JC-1 dye based flow cytometry analysis. The note with it: Mitochondria, dose 1-4 µM.
Experiment [13] deals with ECa-109 cell line. Put plainly: Induction of apoptosis in human ECa-109 cells assessed as early apoptotic cells at 4 uM incubated for 48 hrs by annexin-V-FITC and PI staining based fluorescence microscopic analysis (reference value: 0.971 %). It is filed as functional.
Experiment [14] concerns ECa-109 cell line. Put plainly: Induction of ROS-mediated apoptosis in human ECa-109 cells assessed as viable cells at 1 uM incubated for 48 hrs by annexin V-PE and 7-AAD staining based flow cytometry analysis (reference value: 92.7 %). As to conditions: read-out: Activity. It is filed as functional.
Experiment [15] relates to ECa-109 cell line. Put plainly: Induction of ROS-mediated apoptosis in human ECa-109 cells assessed as viable cells at 1 uM incubated for 48 hrs in presence of NAC by annexin V-PE and 7-AAD staining based flow cytometry analysis (reference value: 94 %). It is filed as functional. The note with it: read-out: Activity.
Experiment [16] relates to SGC-7901. Put plainly: Induction of ROS-mediated apoptosis in human SGC-7901 cells assessed as late apoptotic cells at 1 uM incubated for 48 hrs in presence of NAC by annexin V-PE and 7-AAD staining based flow cytometry analysis (reference value: 3.45 %). It is filed as functional.
For experiment [17], the system named is SGC-7901. Put plainly: Induction of apoptosis in human SGC-7901 cells assessed as late apoptotic cells at 1 uM incubated for 48 hrs by annexin-V-FITC and PI staining based fluorescence microscopic analysis (reference value: 3.87 %). It is filed as functional.
The subject of experiment [18] is SGC-7901. Put plainly: Induction of ROS-mediated apoptosis in human SGC-7901 cells assessed as viable cells at 2 uM incubated for 48 hrs by annexin V-PE and 7-AAD staining based flow cytometry analysis (reference value: 93.6 %). It is filed as functional. As to conditions: read-out: Activity.
Experiment [19] has as its system SGC-7901. Put plainly: Induction of mitochondrial membrane potential disruption in human SGC-7901 cells incubated for 48 hrs by JC-1 dye based flow cytometry analysis. The note with it: Mitochondria, dose 1-4 µM.
Experiment [20] has as its system SGC-7901. Put plainly: Induction of ROS-mediated apoptosis in human SGC-7901 cells assessed as viable cells at 1 uM incubated for 48 hrs in presence of NAC by annexin V-PE and 7-AAD staining based flow cytometry analysis (reference value: 94.8 %). It is filed as functional. As to conditions: read-out: Activity.
The subject of experiment [21] is SGC-7901. Put plainly: Induction of apoptosis in human SGC-7901 cells assessed as late apoptotic cells incubated for 48 hrs by annexin-V-FITC and PI staining based fluorescence microscopic analysis. As to conditions: dose 1-4 µM. It is filed as functional, cell-based.
In experiment [22] the test system is SGC-7901. Put plainly: Induction of ROS-mediated apoptosis in human SGC-7901 cells assessed as viable cells at 1 uM incubated for 48 hrs by annexin V-PE and 7-AAD staining based flow cytometry analysis (reference value: 93.6 %). It is filed as functional. As to conditions: read-out: Activity.
Experiment [23] relates to SGC-7901. Put plainly: Induction of apoptosis in human SGC-7901 cells assessed as decrease in caspase-8 incubated for 48 hrs by Western blot analysis. As to conditions: dose 1-4 µM. It is filed as functional, cell-based.
Experiment [24] relates to SGC-7901. Put plainly: Induction of ROS-mediated apoptosis in human SGC-7901 cells assessed as late apoptotic cells at 2 uM incubated for 48 hrs by annexin V-PE and 7-AAD staining based flow cytometry analysis (reference value: 3.82 %). It is filed as functional.
Experiment [25] concerns SGC-7901. Put plainly: Induction of ROS-mediated apoptosis in human SGC-7901 cells assessed as early apoptotic cells at 2 uM incubated for 48 hrs in presence of NAC by annexin V-PE and 7-AAD staining based flow cytometry analysis (reference value: 1.15 %). It is filed as functional.
Experiment [26] relates to SGC-7901. Put plainly: Induction of apoptosis in human SGC-7901 cells assessed as late apoptotic cells at 4 uM incubated for 48 hrs by annexin-V-FITC and PI staining based fluorescence microscopic analysis (reference value: 3.87 %). It is filed as functional.
In experiment [27] the test system is SGC-7901. Put plainly: Induction of apoptosis in human SGC-7901 cells assessed as necrotic cells at 2 uM incubated for 48 hrs by annexin-V-FITC and PI staining based fluorescence microscopic analysis (reference value: 1.03 %). It is filed as functional.
Experiment [28] concerns SGC-7901. Put plainly: Induction of cell cycle arrest in human SGC-7901 cells assessed as accumulation in G2/M phase at 4 uM incubated for 48 hrs by PI staining based flow cytometry analysis (reference value: 11.48 %). It is filed as functional.
The test system of experiment [29] is SGC-7901. Put plainly: Induction of ROS-mediated apoptosis in human SGC-7901 cells assessed as viable cells at 2 uM incubated for 48 hrs in presence of NAC by annexin V-PE and 7-AAD staining based flow cytometry analysis (reference value: 94.8 %). It is filed as functional. The note with it: read-out: Activity.
The test system of experiment [30] is SGC-7901. Put plainly: Induction of cell cycle arrest in human SGC-7901 cells assessed as accumulation in G0/G1 phase at 2 uM incubated for 48 hrs by PI staining based flow cytometry analysis (reference value: 57.39 %). It is filed as functional.

A word on the IC50: it is the concentration that gives 50% inhibition. Take `COc1ccccc1Cn1n[n+](C)c2c1C(C)(C)[C@@H]1CC[C@]3(C)[C@H](CC[C@@H]4[C@H]5[C@H]6OC[C@@]5(CCC6(C)C)CC[C@]43C)[C@@]1(C)C2.[I-]`: the Activity in the experiment on ECa-109 cell line [1] is 4.87%; in the experiment on ECa-109 cell line [3] it was 12.9%; with ECa-109 cell line [5] it was 42.96%; in the experiment with ECa-109 cell line [7], 18.6%; in the experiment on ECa-109 cell line [8], 2%; with ECa-109 cell line [9] it was 3.5%. Also, the Activity was 20.5% with ECa-109 cell line [11], “Dose-dependent effect” in the experiment on ECa-109 cell line [12] and 2.92% in the experiment with ECa-109 cell line [13]. In addition, the IC50 in the experiment with HepG2 stood at 1520 nM; in the experiment on HeLa, 1490 nM; in the experiment on SGC-7901 [6], 1920 nM; in the experiment on L02 it was 1590 nM; in the experiment with ECa-109 cell line [10], 1040 nM. Further, the “Ratio IC50” value in experiment [2] was found to be 1.53. For the same compound, the viability at 4 µM with ECa-109 cell line [4] turned out to be 0.811%. The viability at 1 µM in the experiment with ECa-109 cell line [14] worked out at 66.9%; in the experiment on ECa-109 cell line [15] it was 76.2%.

In the case of `C[n+]1nn(Cc2c(F)cccc2Cl)c2c1C[C@]1(C)[C@H]3CC[C@@H]4[C@H]5[C@H]6OC[C@@]5(CCC6(C)C)CC[C@@]4(C)[C@]3(C)CC[C@H]1C2(C)C.[I-]`, the IC50 in the experiment on HepG2 turned out to be 2620 nM; in the experiment on HeLa, 2160 nM; with SGC-7901 [6], 1120 nM; in the experiment with L02, 2330 nM; in the experiment on ECa-109 cell line [10], 2630 nM. For the same compound, the Activity in the experiment with SGC-7901 [16] is 4.96%; in the experiment with SGC-7901 [17], 4.79%; with SGC-7901 [19] it was “Dose-dependent effect”; with SGC-7901 [21], “Dose-dependent effect”; in the experiment with SGC-7901 [23] it was “Dose-dependent effect”; in the experiment on SGC-7901 [24], 12.3%. The Activity with SGC-7901 [25] was 19.5%; in the experiment with SGC-7901 [26] it was 97.3%; in the experiment with SGC-7901 [27], 1.56%; with SGC-7901 [28], 18.35%; in the experiment with SGC-7901 [30], 74.64%. The viability at 2 µM in the experiment on SGC-7901 [18] stood at 60.2%; in the experiment with SGC-7901 [29], 71.3%. Also, the viability at 1 µM was determined as 87.7% in the experiment on SGC-7901 [20] and 80.5% in the experiment on SGC-7901 [22].

For the origin of these results see ChEMBL document CHEMBL4706545, “Antiproliferative effect of mitochondria-targeting allobetulin 1,2,3-triazolium salt derivatives and their mechanism of inducing apoptosis of cancer cells” (Eur J Med Chem, 2020).
